This test has as its target T1, Purified ERAP1 (37-941)-10His (ERAP1) (Homo sapiens, UniProt Q9NZ08).
T1 construct: Purified ERAP1 (37-941)-10His (ERAP1)
Kind of test: ERAP1 mediated hydrolysis of an amide substrate (10-mer inhibition assay), biochemical system. As to conditions: 10-mer substrate, 23° C., 1 h, excitation 279 nm / emission 355 nm; read-out: IC50 vs Decapeptide WRVYEKC(Dnp)ALK-acid (where Dnp is Dinitrophenyl maleimide) (10-mer).
T1 sequence (Q9NZ08 37-941): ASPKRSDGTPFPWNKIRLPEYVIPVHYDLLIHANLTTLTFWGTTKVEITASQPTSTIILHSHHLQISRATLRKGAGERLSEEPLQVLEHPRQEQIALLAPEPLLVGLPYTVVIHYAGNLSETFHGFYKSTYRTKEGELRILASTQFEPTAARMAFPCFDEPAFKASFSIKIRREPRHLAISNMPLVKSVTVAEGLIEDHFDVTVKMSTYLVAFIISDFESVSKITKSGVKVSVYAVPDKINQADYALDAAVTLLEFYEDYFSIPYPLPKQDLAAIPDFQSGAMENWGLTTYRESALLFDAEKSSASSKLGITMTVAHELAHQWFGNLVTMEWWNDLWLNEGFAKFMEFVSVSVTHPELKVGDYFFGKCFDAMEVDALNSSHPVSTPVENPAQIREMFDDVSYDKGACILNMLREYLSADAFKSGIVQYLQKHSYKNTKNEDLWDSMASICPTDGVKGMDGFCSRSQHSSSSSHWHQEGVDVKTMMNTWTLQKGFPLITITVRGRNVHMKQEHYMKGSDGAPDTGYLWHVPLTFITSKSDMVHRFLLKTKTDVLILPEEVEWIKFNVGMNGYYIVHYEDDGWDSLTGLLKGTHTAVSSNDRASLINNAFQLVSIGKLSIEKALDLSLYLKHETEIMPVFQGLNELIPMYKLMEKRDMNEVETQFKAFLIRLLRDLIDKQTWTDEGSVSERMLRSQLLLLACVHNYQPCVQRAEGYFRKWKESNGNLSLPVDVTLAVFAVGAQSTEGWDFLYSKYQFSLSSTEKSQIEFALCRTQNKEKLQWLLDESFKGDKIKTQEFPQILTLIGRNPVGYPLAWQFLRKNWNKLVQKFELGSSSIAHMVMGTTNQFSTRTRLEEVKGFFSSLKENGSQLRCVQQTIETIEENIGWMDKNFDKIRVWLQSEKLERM
As to `N#CC1CCN(c2ccc(C(F)(F)F)cc2NS(=O)(=O)c2cc(C(=O)O)ccc2C2CC2)CC1` [Example 315, 3-(N-(2-(4-cyanopiperidin-1-yl)-5-(trifluoromethyl)phenyl)sulfamoyl)-4-cyclopropylbenzoic acid], the IC50 is less than 500 nM.

For `N#Cc1ccc(N2CCCC(F)(F)C2)c(NS(=O)(=O)c2cc(C(=O)O)ccc2C2CC2)c1` [Example 316, 3-(N-(5-cyano-2-(3,3-difluoropiperidin-1-yl)phenyl)sulfamoyl)-4-cyclopropylbenzoic acid], the IC50 was less than 500 nM.

As to `CCc1ccc(C(=O)O)cc1S(=O)(=O)Nc1cc(S(C)(=O)=O)ccc1N1CCC(F)CC1` [Example 317, 4-ethyl-3-(N-(2-(4-fluoropiperidin-1-yl)-5-(methylsulfonyl)phenyl)sulfamoyl)benzoic acid], the IC50 is less than 500 nM.

Turning to `CCc1ccc(C(=O)O)cc1S(=O)(=O)Nc1cc(C#N)ccc1N1CCC(F)CC1` [Example 318, 3-(N-(5-cyano-2-(4-fluoropiperidin-1-yl)phenyl)sulfamoyl)-4-ethylbenzoic acid], the IC50 was less than 500 nM.

On to `CS(=O)(=O)c1ccc(N2CCCC(F)(F)C2)c(NS(=O)(=O)c2cc(C(=O)O)ccc2C2CC2)c1` [Example 319, 4-cyclopropyl-3-(N-(2-(3,3-difluoropiperidin-1-yl)-5-(methylsulfonyl)phenyl)sulfamoyl)benzoic acid], for which the IC50 is less than 500 nM.

For `CS(=O)(=O)c1ccc(N2CCC(F)CC2)c(NS(=O)(=O)c2cc(C(=O)O)ccc2C2CC2)c1` [Example 320, 4-cyclopropyl-3-(N-(2-(4-fluoropiperidin-1-yl)-5-(methylsulfonyl)phenyl)sulfamoyl)benzoic acid], the IC50 was less than 500 nM.

On to `CS(=O)(=O)c1ccc(N2CCC[C@@H](F)C2)c(NS(=O)(=O)c2cc(C(=O)O)ccc2C2CC2)c1` [Example 321, I-4-cyclopropyl-3-(N-(2-(3-fluoropiperidin-1-yl)-5-(methylsulfonyl)phenyl)sulfamoyl)benzoic acid], for which the IC50 is less than 500 nM.

`N#Cc1ccc(N2CCC(F)CC2)c(NS(=O)(=O)c2cc(C(=O)O)ccc2C2CC2)c1` [Example 322, 3-(N-(5-cyano-2-(4-fluoropiperidin-1-yl)phenyl)sulfamoyl)-4-cyclopropylbenzoic acid]: the concentration for half-maximal inhibition (IC50) was less than 500 nM.

As for `O=C(O)c1ccc(C2CC2)c(S(=O)(=O)Nc2cc(-n3cnnn3)ccc2N2CCCCC2)c1` [Example 323, 4-cyclopropyl-3-(N-(2-(piperidin-1-yl)-5-(tetrazol-1-yl)phenyl)sulfamoyl)benzoic acid], the IC50 was less than 500 nM.

As to `N#Cc1cc(NS(=O)(=O)c2cc(C(=O)O)ccc2C2CC2)c(N2CCCCC2)cc1F` [Example 324, 3-(N-(5-cyano-4-fluoro-2-(piperidin-1-yl)phenyl)sulfamoyl)-4-cyclopropylbenzoic acid], the IC50 is less than 500 nM.

For the molecule `O=C(O)c1ccc(C2CC2)c(S(=O)(=O)Nc2cc(-n3cnnn3)ccc2N2CC(O)C2)c1` [Example 325, 4-cyclopropyl-3-(N-(2-(3-hydroxyazetidin-1-yl)-5-(tetrazol-1-yl)phenyl)sulfamoyl)benzoic acid], the IC50 is less than 500 nM.

As for `N#Cc1ccc(N2CCC(C#N)CC2)c(NS(=O)(=O)c2cc(C(=O)O)ccc2C2CC2)c1` [Example 326, 3-(N-(5-cyano-2-(4-cyanopiperidin-1-yl)phenyl)sulfamoyl)-4-cyclopropylbenzoic acid], the concentration for half-maximal inhibition (IC50) is less than 500 nM.

As for `N#Cc1cc(NS(=O)(=O)c2cc(C(=O)O)ccc2C2CC2)c(N2CCCCC2)cc1Cl` [Example 327, 3-(N-(4-chloro-5-cyano-2-(piperidin-1-yl)phenyl)sulfamoyl)-4-cyclopropylbenzoic acid], the IC50 was less than 500 nM.

With `C[C@@H]1C[C@H](C)CN(c2ccc(C#N)cc2NS(=O)(=O)c2cc(C(=O)O)ccc2C2CC2)C1` [Example 328, 3-(N-(5-cyano-2-(cis-3,5-dimethylpiperidin-1-yl)phenyl)sulfamoyl)-4-cyclopropylbenzoic acid], the IC50 is less than 500 nM.

Take `NS(=O)(=O)c1ccc(N2CCCCC2)c(NS(=O)(=O)c2cc(C(=O)O)ccc2C2CC2)c1` [Example 329, 4-cyclopropyl-3-(N-(2-(piperidin-1-yl)-5-sulfamoylphenyl)sulfamoyl)benzoic acid]: the IC50 was less than 500 nM.

In the case of `N#Cc1ccc(N2CCCCC2)c(NS(=O)(=O)c2cc(C(=O)O)ccc2C2CCC2)c1` [Example 330, 3-(N-(5-cyano-2-(piperidin-1-yl)phenyl)sulfamoyl)-4-cyclobutylbenzoic acid], the IC50 was less than 500 nM.

Regarding `CS(=O)(=O)c1cc(NS(=O)(=O)c2cc(C(=O)O)ccc2C2CC2)c(N2CCCCC2)cc1F` [Example 331, 4-cyclopropyl-3-(N-(4-fluoro-5-(methylsulfonyl)-2-(piperidin-1-yl)phenyl)sulfamoyl)benzoic acid], the IC50 was less than 500 nM.

Regarding `CS(=O)(=O)c1cc(NS(=O)(=O)c2cc(C(=O)O)ccc2C2CC2)c(N2CCCCC2)cc1Cl` [Example 332, 3-(N-(4-chloro-5-(methylsulfonyl)-2-(piperidin-1-yl)phenyl)sulfamoyl)-4-cyclopropylbenzoic acid], the IC50 was less than 500 nM.

Take `O=C(O)c1ccc(C2CC2)c(S(=O)(=O)Nc2cc(-n3cnnn3)c(F)cc2N2CCCCC2)c1` [Example 333, 4-cyclopropyl-3-(N-(4-fluoro-2-(piperidin-1-yl)-5-(tetrazol-1-yl)phenyl)sulfamoyl)benzoic acid]: the IC50 is less than 500 nM.

For `O=C(O)c1ccc(C2CC2)c(S(=O)(=O)Nc2cc(-n3cnnn3)c(Cl)cc2N2CCCCC2)c1` [Example 334, 3-(N-(4-chloro-2-(piperidin-1-yl)-5-(tetrazol-1-yl)phenyl)sulfamoyl)-4-cyclopropylbenzoic acid], the IC50 is less than 500 nM.

As to `[2H]C1([2H])C([2H])([2H])C1([2H])c1ccc(C(=O)O)cc1S(=O)(=O)Nc1cc(C#N)ccc1N1CCCCC1` [Example 335, 3-(N-(5-cyano-2-(piperidin-1-yl)phenyl)sulfamoyl)-4-(cyclopropyl-d5)benzoic acid], the IC50 is less than 500 nM.

For `Cc1cc(C#N)cc(NS(=O)(=O)c2cc(C(=O)O)ccc2C2CC2)c1N1CCCCC1` [Example 336, 3-(N-(5-cyano-3-methyl-2-(piperidin-1-yl)phenyl)sulfamoyl)-4-cyclopropylbenzoic acid], the concentration for half-maximal inhibition (IC50) is less than 500 nM.

Take `CC(C)(C)c1ccc(C(=O)O)cc1S(=O)(=O)Nc1cc(C#N)ccc1N1CCCCC1` [Example 337, 4-(tert-butyl)-3-(N-(5-cyano-2-(piperidin-1-yl)phenyl)sulfamoyl)benzoic acid]: the IC50 is less than 5000 nM.

For the molecule `C#Cc1ccc(C(=O)O)cc1S(=O)(=O)Nc1cc(C#N)ccc1N1CCCCC1` [Example 338, 3-(N-(5-cyano-2-(piperidin-1-yl)phenyl)sulfamoyl)-4-ethynylbenzoic acid], the IC50 is more than 5000 nM.

The values are drawn from US12485169B2, “Compounds” (GREY WOLF THERAPEUTICS LIMITED, priority 2018, dated 2025).
